Test results reported in patent US20040180880A1, “Piperazine and piperidine derivatives” (priority 2002, published 2004).
Structures can show the parent of a compound that is named as a salt.

What was measured:
[1] = tested on: rat embryo ventral mesencephalic (VM) cells; assay: Neuroprotection assay: NMDA injury of ventral mesencephalic cultures, read by high affinity 3H-dopamine uptake; type: cell-based; conditions: embryonic day 15 Sprague-Dawley rat VM cells, NMDA 100-400 μM for 20 hours, read-out: DAT (VM) IC50
Description: The neuroprotective activity of the compounds of this invention may be assayed using rat embryo ventral mesencephalic cells in culture which are subsequently exposed to the glutamate receptor agonist NMDA. This assay is described in detail in the example section.
The ventral mesencephalic region was dissected out of embryonic day 15 Sprague-Dawley rat embryos (Harlan), dissociated into single cell suspension by a combination of trypsinization and trituration (Costantini et al., Neurobiol Dis., pp. 97-106 (1998). Dissociated VM cells were plated into poly-L-ornithine-coated 96-well plates at a density of 85,000 cells/well in 100 uL of DMEM supplemented with 18% heat-inactivated horse serum, 0.24% glucose, 2 mM glutamine and 50 u/ml pernicillin/streptomycin and incubated in a 5% CO2 incubator. After one day in culture (DIV1), the medium was replaced with 100 μL of a defined medium (DMEM supplemented with 1×N2 cocktail (Gibco-BRL), 0.12% glucose, 2 mM glutamine, and […] penicillin/streptomycin) containing DMSO or various concentrations of the compounds of this invention. On DIV5, neuroexcitotoxic injury was induced by the addition of various concentrations of the glutamate receptor agonist NMDA (100-400 μM). Cultures were incubated with the neurotoxin for 20 hours and the effects of neurophilin compounds were assessed using high affinity ^3H-dopamine uptake according to a procedure published by Park and Mytilineou [Brain Res., 599, pp. 83-97 (1992)].

Row | melting point [°C] | SMILES | IC50 [1] [µM]
1 | – | O=C(C1CCCCN1)N1CCN(C(c2ccc(F)cc2)c2ccc(F)cc2)CC1 (stereo not shown) [Compound 28, (4-(Bis-(4-fluoro-phenyl)-methyl)piperazine-1-yl)-piperidin-2-yl-methanone dihydrochloride] | 0.012
2 | 84 to 85 | O=C(C1CCCCN1)N1CCN(C(c2ccc(F)cc2F)c2ccc(F)cc2F)CC1 (stereo not shown) (as salt: hydrochloride) [Compound 9, {4-[Bis-(2,4-difluoro-phenyl)-methyl]-piperazin-1-yl}-piperidin-2-yl-methanone] | –
3 | – | O=C(C1CCCCN1)N1CCN(C(c2ccc(F)cc2F)c2ccc(F)cc2F)CC1 (stereo not shown) [Compound 9, {4-[Bis-(2,4-difluoro-phenyl)-methyl]-piperazin-1-yl}-piperidin-2-yl-methanone] | 0.145
4 | – | O=C(C1CCCCN1)N1CCN(C(c2ccc(F)c(F)c2)c2ccc(F)c(F)c2)CC1 (stereo not shown) [Compound 17, (4-(Bis-(3,4-difluoro-phenyl)-methyl)piperazine-1-yl)-piperidin-2-yl-methanone] | 0.006
